pEC50: −log10 of the molar value.
How the values were obtained:
SfruOR16 = tested on: T1, SfruOR16; test: two-electrode voltage clamp, Xenopus oocytes co-expressing SfruOR16/ORco, dose-response; assay type: cell-based, Spodoptera frugiperda
T1 construct: gene OR16; full-length ORF; with SfruORco

SfruOR13 = tested on: T2, SfruOR13; test: two-electrode voltage clamp, Xenopus oocytes co-expressing SfruOR13/ORco, dose-response; assay type: cell-based, Spodoptera frugiperda
T2 construct: gene OR13; full-length ORF; with SfruORco

`CCCC/C=C\CCCCCCCCO` [Z9-14:OH, (Z)-9-tetradecen-1-ol] gave a pEC50 (SfruOR16) of 4.77.
In the case of `CCCC/C=C\CCCCCCCCOC(C)=O` [Z9-14:OAc], the pEC50 (SfruOR13) was 5.22.

Source: publication PMC7143582, “Functional Characterization of Sex Pheromone Receptors in the Fall Armyworm (Spodoptera frugiperda)” (Insects, 2020)
